Measured values taken from patent US10245261B2, “Substituted indol-5-ol derivatives and their therapeutic applications” (NantBioScience, Inc., priority 2013, dated 2019).
pIC50: −log10 of the molar value. Read-outs that look alike come from different tables or passages of the source.

Assays:
[1] = target: Abl(h) (Homo sapiens, UniProt P00519); experiment: KinaseProfiler kinase assay; format: biochemical; conditions: for IC50: read-out: IC50 (nM) Abl (h)
[2] = target: T1, Aurora-A(h) (Homo sapiens, UniProt O14965); experiment: KinaseProfiler kinase assay; format: biochemical; conditions: for inhibition at 1 µM: read-out: % Inhibition @1 μM Auroro-A; for IC50: read-out: IC50 (nM) Auroro-A (h)
T1 sequence (O14965 1-403): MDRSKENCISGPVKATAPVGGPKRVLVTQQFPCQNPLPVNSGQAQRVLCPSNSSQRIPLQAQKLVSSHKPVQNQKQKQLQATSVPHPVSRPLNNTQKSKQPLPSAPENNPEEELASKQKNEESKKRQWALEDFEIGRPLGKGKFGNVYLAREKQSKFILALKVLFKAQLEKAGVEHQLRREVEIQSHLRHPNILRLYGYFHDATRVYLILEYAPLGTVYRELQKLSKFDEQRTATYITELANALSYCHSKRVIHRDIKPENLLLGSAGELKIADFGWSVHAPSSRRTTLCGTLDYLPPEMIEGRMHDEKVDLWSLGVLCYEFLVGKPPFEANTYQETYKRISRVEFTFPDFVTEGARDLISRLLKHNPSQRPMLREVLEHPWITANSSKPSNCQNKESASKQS
Procedure, shortened: (§1)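 Buffer 20 mM MOPS, 1 mM EDTA, 0.01% Brij-35, 5% glycerol, 0.1% β-mercaptoethanol, 1 mg/mL BSA for compound dilution; reaction at pH 7.0 with [γ-33P]ATP, 40 min RT; filtermat/scintillation read-out; 0%/100% set by no-kinase and phosphopeptide wells.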

[3] = target: FGFR1(h) (Homo sapiens, UniProt P11362); experiment: KinaseProfiler kinase assay; format: biochemical; conditions: for IC50: read-out: IC50 (nM) FGFR1 (h)
FGFR1(h), sequence (P11362 22-822): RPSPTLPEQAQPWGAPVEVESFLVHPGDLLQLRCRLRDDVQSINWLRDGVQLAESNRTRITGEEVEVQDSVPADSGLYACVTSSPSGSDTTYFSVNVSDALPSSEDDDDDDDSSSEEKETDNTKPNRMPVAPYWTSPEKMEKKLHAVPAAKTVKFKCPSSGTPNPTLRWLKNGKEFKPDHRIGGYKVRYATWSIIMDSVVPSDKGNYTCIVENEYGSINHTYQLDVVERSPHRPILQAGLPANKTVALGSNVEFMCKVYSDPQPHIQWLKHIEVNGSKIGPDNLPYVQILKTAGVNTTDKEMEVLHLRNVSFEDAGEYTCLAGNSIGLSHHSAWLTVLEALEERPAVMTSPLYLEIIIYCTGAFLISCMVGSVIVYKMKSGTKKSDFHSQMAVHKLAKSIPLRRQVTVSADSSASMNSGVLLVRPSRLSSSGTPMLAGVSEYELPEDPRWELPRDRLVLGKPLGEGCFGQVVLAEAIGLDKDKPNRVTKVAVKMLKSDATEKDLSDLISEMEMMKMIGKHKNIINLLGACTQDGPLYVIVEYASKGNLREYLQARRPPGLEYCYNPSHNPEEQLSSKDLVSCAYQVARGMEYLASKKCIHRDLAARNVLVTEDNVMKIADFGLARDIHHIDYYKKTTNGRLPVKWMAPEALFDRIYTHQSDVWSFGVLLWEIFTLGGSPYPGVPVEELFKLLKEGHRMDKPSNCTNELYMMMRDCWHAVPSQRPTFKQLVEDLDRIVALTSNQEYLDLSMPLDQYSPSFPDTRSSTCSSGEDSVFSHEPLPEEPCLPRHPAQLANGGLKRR
Procedure, shortened: as §1

[4] = target: T2, Flt3(h) (Homo sapiens, UniProt P36888); experiment: KinaseProfiler kinase assay; format: biochemical; conditions: for IC50: read-out: IC50 (nM) Flt3 (h)
T2 sequence (P36888 27-993): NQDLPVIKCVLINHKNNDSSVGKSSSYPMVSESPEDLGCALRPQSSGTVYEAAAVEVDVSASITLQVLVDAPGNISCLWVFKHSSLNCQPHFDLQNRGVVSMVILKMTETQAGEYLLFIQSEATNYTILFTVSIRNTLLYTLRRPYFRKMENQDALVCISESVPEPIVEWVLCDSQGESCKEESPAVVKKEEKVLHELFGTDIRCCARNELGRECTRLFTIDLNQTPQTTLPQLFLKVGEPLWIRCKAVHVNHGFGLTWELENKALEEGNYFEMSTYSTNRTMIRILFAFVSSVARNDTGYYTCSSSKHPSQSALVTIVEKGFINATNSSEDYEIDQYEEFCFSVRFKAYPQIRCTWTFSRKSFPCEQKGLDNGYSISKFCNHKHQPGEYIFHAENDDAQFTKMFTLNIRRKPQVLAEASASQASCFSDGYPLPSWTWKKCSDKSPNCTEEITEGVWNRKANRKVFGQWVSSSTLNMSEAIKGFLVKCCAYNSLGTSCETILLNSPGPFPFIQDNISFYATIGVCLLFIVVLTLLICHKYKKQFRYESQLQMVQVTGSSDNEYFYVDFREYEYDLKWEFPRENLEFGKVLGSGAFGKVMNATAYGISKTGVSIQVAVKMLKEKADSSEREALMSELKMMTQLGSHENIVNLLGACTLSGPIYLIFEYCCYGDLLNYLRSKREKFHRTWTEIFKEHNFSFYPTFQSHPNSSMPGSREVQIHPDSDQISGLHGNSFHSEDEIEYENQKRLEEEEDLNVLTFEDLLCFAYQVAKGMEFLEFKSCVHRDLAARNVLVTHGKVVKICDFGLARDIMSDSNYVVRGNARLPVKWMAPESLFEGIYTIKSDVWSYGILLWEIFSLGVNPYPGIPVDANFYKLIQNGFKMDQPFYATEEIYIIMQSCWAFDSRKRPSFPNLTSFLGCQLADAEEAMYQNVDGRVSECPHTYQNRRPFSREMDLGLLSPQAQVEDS
Procedure, shortened: as §1

[5] = target: Ret(h) (Homo sapiens, UniProt P07949); experiment: KinaseProfiler kinase assay; format: biochemical
Ret(h), sequence (P07949 29-1114): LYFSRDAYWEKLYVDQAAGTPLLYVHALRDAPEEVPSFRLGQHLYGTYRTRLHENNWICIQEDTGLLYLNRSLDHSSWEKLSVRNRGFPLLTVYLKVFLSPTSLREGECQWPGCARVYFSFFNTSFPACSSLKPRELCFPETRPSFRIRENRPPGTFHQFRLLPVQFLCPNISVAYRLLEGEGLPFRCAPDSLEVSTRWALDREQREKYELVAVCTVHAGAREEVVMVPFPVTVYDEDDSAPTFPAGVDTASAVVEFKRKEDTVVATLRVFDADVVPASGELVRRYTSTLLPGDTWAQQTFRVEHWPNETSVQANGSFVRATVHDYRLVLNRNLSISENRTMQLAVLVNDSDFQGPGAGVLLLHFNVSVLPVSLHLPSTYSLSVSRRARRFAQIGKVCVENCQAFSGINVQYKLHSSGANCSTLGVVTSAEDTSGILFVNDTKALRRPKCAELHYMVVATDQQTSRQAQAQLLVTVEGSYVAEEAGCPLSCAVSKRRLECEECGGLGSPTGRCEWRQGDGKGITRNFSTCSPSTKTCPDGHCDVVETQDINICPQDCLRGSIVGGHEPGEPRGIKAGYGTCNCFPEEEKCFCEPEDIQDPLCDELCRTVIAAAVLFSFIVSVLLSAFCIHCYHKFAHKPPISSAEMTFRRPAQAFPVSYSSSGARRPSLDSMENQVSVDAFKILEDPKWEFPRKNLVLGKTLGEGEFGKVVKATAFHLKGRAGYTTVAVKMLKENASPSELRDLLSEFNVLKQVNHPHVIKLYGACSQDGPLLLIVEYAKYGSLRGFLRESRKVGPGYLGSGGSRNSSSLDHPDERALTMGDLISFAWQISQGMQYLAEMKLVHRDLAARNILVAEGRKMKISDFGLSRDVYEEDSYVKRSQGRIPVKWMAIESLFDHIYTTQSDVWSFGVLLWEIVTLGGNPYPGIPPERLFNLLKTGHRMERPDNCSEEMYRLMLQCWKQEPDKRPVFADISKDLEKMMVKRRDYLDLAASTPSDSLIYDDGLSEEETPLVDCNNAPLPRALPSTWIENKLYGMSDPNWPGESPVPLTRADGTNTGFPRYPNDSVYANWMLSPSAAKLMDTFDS
Procedure, shortened: as §1

[6] = target: cSRC(h) (Homo sapiens, UniProt P12931); experiment: KinaseProfiler kinase assay; format: biochemical; conditions: for IC50: read-out: IC50 (nM) cSrc (h)
cSRC(h), sequence (P12931 whole entry): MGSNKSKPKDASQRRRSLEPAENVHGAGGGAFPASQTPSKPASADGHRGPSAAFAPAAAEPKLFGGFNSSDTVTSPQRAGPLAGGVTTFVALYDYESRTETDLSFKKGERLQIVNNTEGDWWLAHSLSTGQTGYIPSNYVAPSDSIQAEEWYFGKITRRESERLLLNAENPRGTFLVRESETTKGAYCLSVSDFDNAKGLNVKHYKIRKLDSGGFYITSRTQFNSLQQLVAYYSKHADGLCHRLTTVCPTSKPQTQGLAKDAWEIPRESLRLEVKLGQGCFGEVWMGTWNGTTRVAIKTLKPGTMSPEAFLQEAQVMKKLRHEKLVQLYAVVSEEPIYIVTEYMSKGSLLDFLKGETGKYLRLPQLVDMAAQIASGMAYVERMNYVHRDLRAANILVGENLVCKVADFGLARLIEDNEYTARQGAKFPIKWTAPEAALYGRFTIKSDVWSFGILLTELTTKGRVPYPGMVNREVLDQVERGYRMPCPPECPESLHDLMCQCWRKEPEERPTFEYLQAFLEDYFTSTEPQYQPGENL
Procedure, shortened: as §1

[7] = target: KDR(h) (Homo sapiens, UniProt P35968); experiment: KinaseProfiler kinase assay; format: biochemical; conditions: for IC50: read-out: IC50 (nM) KDR (h)
KDR(h), sequence (P35968 20-1356): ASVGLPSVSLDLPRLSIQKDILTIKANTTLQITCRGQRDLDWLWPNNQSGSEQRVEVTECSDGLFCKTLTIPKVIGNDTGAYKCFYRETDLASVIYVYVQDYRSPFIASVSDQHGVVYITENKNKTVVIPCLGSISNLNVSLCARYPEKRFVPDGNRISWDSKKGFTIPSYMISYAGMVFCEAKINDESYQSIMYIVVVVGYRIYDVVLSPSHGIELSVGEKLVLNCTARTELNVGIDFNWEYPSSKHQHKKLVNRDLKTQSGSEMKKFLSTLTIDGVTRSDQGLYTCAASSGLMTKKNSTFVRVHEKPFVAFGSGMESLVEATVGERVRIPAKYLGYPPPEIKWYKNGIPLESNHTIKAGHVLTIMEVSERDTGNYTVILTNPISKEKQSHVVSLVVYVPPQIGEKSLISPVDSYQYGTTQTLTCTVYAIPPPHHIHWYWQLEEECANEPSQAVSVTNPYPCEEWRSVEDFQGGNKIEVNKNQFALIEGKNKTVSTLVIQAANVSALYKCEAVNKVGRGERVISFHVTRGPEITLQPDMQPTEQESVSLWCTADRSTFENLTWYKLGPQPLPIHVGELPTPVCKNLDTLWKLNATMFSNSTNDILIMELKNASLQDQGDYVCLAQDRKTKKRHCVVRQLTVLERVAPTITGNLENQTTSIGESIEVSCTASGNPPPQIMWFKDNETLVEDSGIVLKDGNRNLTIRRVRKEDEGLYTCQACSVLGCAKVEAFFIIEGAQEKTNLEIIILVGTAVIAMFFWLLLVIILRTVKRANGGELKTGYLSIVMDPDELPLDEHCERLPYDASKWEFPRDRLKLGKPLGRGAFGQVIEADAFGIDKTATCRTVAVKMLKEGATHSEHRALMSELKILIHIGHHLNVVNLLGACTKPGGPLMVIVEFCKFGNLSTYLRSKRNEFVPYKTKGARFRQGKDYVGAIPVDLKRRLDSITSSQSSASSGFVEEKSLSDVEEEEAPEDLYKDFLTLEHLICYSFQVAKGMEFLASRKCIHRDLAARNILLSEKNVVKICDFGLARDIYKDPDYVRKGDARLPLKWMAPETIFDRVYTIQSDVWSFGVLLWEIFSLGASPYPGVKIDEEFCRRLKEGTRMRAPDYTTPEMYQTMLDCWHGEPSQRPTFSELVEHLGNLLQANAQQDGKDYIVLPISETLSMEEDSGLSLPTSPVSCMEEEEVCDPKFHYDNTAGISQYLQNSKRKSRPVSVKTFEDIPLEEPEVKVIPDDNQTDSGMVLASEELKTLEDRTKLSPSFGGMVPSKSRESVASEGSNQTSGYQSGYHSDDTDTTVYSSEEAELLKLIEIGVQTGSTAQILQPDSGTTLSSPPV

[8] = tested on: K562; experiment: CellTiterBlue cell growth inhibition; format: cell-based; conditions: Homo sapiens; K562, 72 hours
Description: (§2) This example illustrated the proliferating cell growth inhibition of selected compounds from this invention. To do this, the cells were seeded into fresh Iscove's growth medium at a density of 0.4e6 cells/ml and grown in log phase for 24 hr. Cells were then resuspended in their fresh respective growth media at 0.1e^6 cells/ml and plated into 384 well black, clear-bottom microplates at 36 ul/well. Test compounds and controls were initially dissolved in DMSO at the desired concentration, then serially diluted to the assay buffer. These solutions were added and cells were incubated for 72 hours at 37° C. CellTiterBlue (Promega cat# G7572) was added on the Beckman FX. Plates were returned to the 37° C. CO2 incubator for 4 hr and then fluorescence was determined on the Victor plate reader. Data were processed using Microsoft Excel, and GI50 values were generated using Prism (GraphPad Software, San Diego, Calif.).

[9] = tested on: MV4.11; experiment: CellTiterBlue cell growth inhibition; format: cell-based; conditions: Homo sapiens; MV4.11, 72 hours
Description: as §2

Abl(h), sequence (P00519 whole entry): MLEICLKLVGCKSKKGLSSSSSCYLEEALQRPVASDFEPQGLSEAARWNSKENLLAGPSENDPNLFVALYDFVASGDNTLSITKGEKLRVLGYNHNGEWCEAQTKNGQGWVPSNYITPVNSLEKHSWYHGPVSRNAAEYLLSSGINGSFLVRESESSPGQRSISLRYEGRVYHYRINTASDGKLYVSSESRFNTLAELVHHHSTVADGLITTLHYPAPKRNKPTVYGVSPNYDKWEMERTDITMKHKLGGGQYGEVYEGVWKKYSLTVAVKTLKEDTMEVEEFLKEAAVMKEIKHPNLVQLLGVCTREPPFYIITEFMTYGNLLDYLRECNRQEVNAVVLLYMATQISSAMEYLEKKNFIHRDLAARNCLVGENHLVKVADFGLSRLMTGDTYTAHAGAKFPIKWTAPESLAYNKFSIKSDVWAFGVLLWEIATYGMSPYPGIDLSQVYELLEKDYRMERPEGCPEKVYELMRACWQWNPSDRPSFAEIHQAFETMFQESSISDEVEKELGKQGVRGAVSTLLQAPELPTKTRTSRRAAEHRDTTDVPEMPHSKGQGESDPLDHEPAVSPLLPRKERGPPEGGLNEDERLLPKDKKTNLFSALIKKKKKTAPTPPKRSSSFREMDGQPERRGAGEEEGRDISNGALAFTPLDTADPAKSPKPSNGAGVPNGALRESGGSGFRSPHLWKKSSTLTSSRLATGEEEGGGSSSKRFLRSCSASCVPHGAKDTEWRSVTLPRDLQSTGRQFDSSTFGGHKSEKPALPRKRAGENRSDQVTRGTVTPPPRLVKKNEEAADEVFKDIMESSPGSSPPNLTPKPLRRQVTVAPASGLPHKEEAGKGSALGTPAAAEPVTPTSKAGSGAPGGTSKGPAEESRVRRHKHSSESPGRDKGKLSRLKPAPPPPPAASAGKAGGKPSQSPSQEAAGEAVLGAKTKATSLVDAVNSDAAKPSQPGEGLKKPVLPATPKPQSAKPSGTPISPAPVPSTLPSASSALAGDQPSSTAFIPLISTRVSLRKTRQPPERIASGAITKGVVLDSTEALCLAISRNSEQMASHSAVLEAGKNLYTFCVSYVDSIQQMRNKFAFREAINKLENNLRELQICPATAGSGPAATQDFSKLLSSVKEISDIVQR

Row | Structure (SMILES) | inhibition at 0.1 µM [1] [%] | inhibition at 1 µM [1] [%] | IC50 [1] [nM] | inhibition at 0.1 µM [2] [%] | inhibition at 1 µM [2] [%] | IC50 [2] [nM] | inhibition at 0.1 µM [3] [%] | IC50 [3] [nM] | inhibition at 0.1 µM [4] [%] | inhibition at 1 µM [4] [%] | IC50 [4] [nM] | inhibition at 0.1 µM [5] [%] | inhibition at 1 µM [5] [%] | inhibition at 0.1 µM [6] [%] | inhibition at 1 µM [6] [%] | IC50 [6] [nM] | inhibition at 1 µM [7] [%] | GI50 [8] [nM] | GI50 [9] [nM] | IC50 [7] [nM] | also measured
1 | Cc1cc2c(F)c(Oc3nc(Nc4cc(C5CC5)[nH]n4)cc(N4CCN(C)CC4)n3)ccc2[nH]1 [Compound 10] | 110 | 112 | 0.5 | 98 | 99 | 2 | 100 | 1 | 101 | 100 | 11 | 102 | 101 | 103 | 100 | 3 | 95 | 0.19 | 0.19 |  | inhibition at 0.1 µM [7]: 93%
2 | Cc1cc2c(F)c(Oc3nc(Nc4cc(C5CC5)[nH]n4)cc(N4CCNCC4)n3)ccc2[nH]1 [Compound 11, N-(5-cyclopropyl-1H-pyrazol-3-yl)-2-((4-fluoro-2-methyl-1H-indol-5-yl)oxy)-6-(piperazin-1-yl)pyrimidin-4-amine] | 108 | 111 | 0.5 | 99 | 100 | < 0.1 | 100 | 0.5 | 98 | 100 | 12 | 100 | 101 | 98 | 101 | 3 | 96 | 0.41 | 0.29 | 12 | inhibition at 0.1 µM [7]: 92%
3 | C/C=C/c1cc(Nc2cc(N3CCN(C)CC3)nc(Oc3ccc4[nH]c(C)cc4c3F)n2)n[nH]1 [Compound 53] |  | 109 |  |  | 97 |  |  |  |  | 99 |  |  | 98 |  | 98 |  | 95 | 0.69 | 0.15 |  | pIC50 ([1]; Abl, read-out: IC50): 9.22; pIC50 ([2]; Aurora-A, read-out: IC50): 8.40; pIC50 ([3]; FGFR1, read-out: IC50): 9.30; pIC50 ([4]; Flt3, read-out: IC50): 7.89; pIC50 ([5]; Ret, read-out: IC50): 8.70; pIC50 ([6]; cSrc, read-out: IC50): 8.70; pIC50 ([7]; VEGFR2, read-out: IC50): 7.80
4 | C/C=C/c1cc(Nc2cc(N3CCNCC3)nc(Oc3ccc4[nH]c(C)cc4c3F)n2)n[nH]1 [Compound 68] |  | 107 | 0.3 |  | 99 | 10 |  | 0.6 |  | 100 | 4 |  | 99 |  | 96 | 2 | 92 | 0.26 | 0.16 | 12 | 
5 | Cc1cc2c(F)c(Oc3nc(Nc4cc(C5CC5)[nH]n4)cc(N4CCNCC4)n3)cc(F)c2[nH]1 [Compound 82] |  | 106 | 0.2 |  | 100 | 4 |  | 0.6 |  | 100 | 6 |  | 100 |  | 100 | 2 | 95 | 0.31 | 0.28 | 11 | IC50 ([5]; read-out: IC50 (nM) Ret (h)): 1 nM
6 | C/C=C/c1cc(Nc2cc(N3CCN(CCO)CC3)nc(Oc3cc(F)c4[nH]c(C)cc4c3F)n2)n[nH]1 [Compound 88] |  | 113 | 1 |  | 100 |  |  | 0.2 |  | 100 | 8 |  | 99 |  | 100 | 4 | 96 | 0.6 | 0.16 | 44 | 
